# Calls of active or inactive are those of the source.
# Legend:
# Estrogen receptor beta = Estrogen receptor beta (Homo sapiens, UniProt Q92731); assay: ERβ–SRC-3 coactivator interaction inhibitors, confirmation, orthogonal assay, biochemical, ELISA, streptavidin-HRP readout (AID 1060)
# [1] = target: T1, DNA dC->dU-editing enzyme APOBEC-3A (Homo sapiens, UniProt P31941); assay: Dose Response confirmation of small molecule APOBEC3A DNA Deaminase Inhibitors via a fluorescence-based single-stranded DNA deaminase assay. [Related pubchem assays (depositor defined):AID493011, AID493024]; assay type: functional
# [2] = target: T2, DNA dC->dU-editing enzyme APOBEC-3G (Homo sapiens, UniProt Q9HC16); assay type: functional
# [3] = target: T1, DNA dC->dU-editing enzyme APOBEC-3A; assay: SAR analysis of small molecule inhibitors of APOBEC3A DNA Deaminase via a fluorescence-based single-stranded DNA deaminase assay - Set 2.; assay type: functional; conditions: read-out: IC50_Mean
# [4] = target: T2, DNA dC->dU-editing enzyme APOBEC-3G; assay: SAR analysis of small molecule inhibitors of APOBEC3G DNA Deaminase via a fluorescence-based single-stranded DNA deaminase assay - Set 2.; assay type: functional; conditions: read-out: IC50_Mean
# [5] = target: T2, DNA dC->dU-editing enzyme APOBEC-3G; assay: APOBEC3G deaminase inhibitors, SAR follow-up, biochemical, fluorescence, single-stranded DNA substrate (AID 602136); assay type: functional; conditions: read-out: IC50_Mean
# [6] = target: T1, DNA dC->dU-editing enzyme APOBEC-3A; assay: SAR analysis of small molecule inhibitors of APOBEC3A DNA Deaminase via a fluorescence-based single-stranded DNA deaminase assay.; assay type: functional; conditions: read-out: IC50_Mean
# [7] = target: Low molecular weight phosphotyrosine protein phosphatase (Homo sapiens, UniProt P24666); assay type: functional; conditions: read-out: IC50_Mean;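 also: Dose-response confirmation assay measuring inhibition of LMPTP enzyme activity by fluorescence intensity read-out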
# [8] = Vero cell cytotoxicity, cytotoxicity control for M. tuberculosis inhibitor project, purified and synthesized samples, set 3 (AID 504684); assay type: functional
# [9] = A Cell Based Secondary Assay to Explore Cytotoxicity in HepG2 Cells of Compounds that Modulate Mycobacterium tuberculosis in Media Containing Glycerol versus Media without Glycerol (2).; assay type: functional
# [10] = target: Serine/threonine-protein kinase pim-1 (Homo sapiens, UniProt P11309); assay type: functional
# [11] = target: Cell division cycle 7-related protein kinase (Homo sapiens, UniProt O00311); assay type: functional;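 also: value obtained from a kinome-wide kinase panel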
# [12] = target: Homeodomain-interacting protein kinase 2 (Homo sapiens, UniProt Q9H2X6); assay type: functional;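 also: measured within a kinome-wide kinase profiling panel, HIPK2 being one panel member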
# [13] = target: MAP kinase-interacting serine/threonine-protein kinase 2 (Homo sapiens, UniProt Q9HBH9); assay type: functional
# [14] = target: T3, Interleukin-1 receptor-associated kinase 4 (Homo sapiens, UniProt Q9NWZ3); assay type: functional
# T3 sequence (Q9NWZ3 whole entry): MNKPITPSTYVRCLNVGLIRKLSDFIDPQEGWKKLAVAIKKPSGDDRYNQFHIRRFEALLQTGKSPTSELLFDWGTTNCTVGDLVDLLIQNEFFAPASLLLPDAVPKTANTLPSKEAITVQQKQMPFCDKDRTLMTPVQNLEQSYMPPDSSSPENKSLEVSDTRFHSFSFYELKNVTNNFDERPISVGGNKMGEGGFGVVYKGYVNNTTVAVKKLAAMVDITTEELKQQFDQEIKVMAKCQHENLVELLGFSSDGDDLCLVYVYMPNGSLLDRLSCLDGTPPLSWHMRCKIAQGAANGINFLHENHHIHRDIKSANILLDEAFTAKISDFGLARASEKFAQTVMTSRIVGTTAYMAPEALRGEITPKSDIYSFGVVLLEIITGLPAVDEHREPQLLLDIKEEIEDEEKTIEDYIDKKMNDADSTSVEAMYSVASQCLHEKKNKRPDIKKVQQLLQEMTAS
# [15] = target: Glycogen synthase kinase-3 beta (Homo sapiens, UniProt P49841); assay type: functional;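 also: value comes from a broad kinome profiling panel, with GSK3B as the panel member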
# [16] = target: cAMP-dependent protein kinase catalytic subunit alpha (Homo sapiens, UniProt P17612); assay type: functional
# [17] = target: Dual specificity protein kinase CLK4 (Homo sapiens, UniProt Q9HAZ1); assay type: functional
# [18] = target: Mitogen-activated protein kinase kinase kinase kinase 4 (Homo sapiens, UniProt O95819); assay type: functional
# [19] = target: Sphingosine 1-phosphate receptor 1 (Homo sapiens, UniProt P21453); assay: Late-stage fluorescence-based dose-response cell-based counterscreen assay to identify agonists of the Sphingosine 1-Phosphate Receptor 4 (S1P4): Sphingosine 1-Phosphate Receptor 1 (S1P1) agonist assay Set 2.; assay type: functional
# [20] = target: Sphingosine 1-phosphate receptor 5 (Homo sapiens, UniProt Q9H228); assay: S1P5 receptor agonists, human, late-stage follow-up, counter-screen for S1P4 agonist project, cell-based, fluorescence, set 2 (AID 504867); assay type: functional
# [21] = target: Sphingosine 1-phosphate receptor 3 (Homo sapiens, UniProt Q99500); assay: Late-stage fluorescence-based dose-response cell-based counterscreen assay to identify agonists of the Sphingosine 1-Phosphate Receptor 4 (S1P4): Sphingosine 1-Phosphate Receptor 3 (S1P3) agonist assay Set 2.; assay type: functional
# [22] = target: Sphingosine 1-phosphate receptor 2 (Homo sapiens, UniProt O95136); assay: S1P2 receptor agonists, human, late-stage follow-up, counter-screen for S1P4 agonist project, cell-based, fluorescence, set 2 (AID 504873); assay type: functional
# [23] = target: Cyclin-dependent kinase 2 (Homo sapiens, UniProt P24941); assay type: functional;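 also: CDK2 measured as one member of a broad kinome profiling panel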
# [24] = target: G protein-coupled receptor kinase 5 (Homo sapiens, UniProt P34947); assay: Navigating the Kinome. Panel member name: GPRK5; assay type: functional
# [25] = target: Cyclin-dependent kinase 8 (Homo sapiens, UniProt P49336); assay: Navigating the Kinome. Panel member name: CDK8; assay type: functional
# [26] = target: T4, High affinity choline transporter 1 (Homo sapiens, UniProt Q9GZV3); assay: CHT activators, dose response, cell-based, 10-point CRC, membrane potential dye (AID 602376); assay type: functional
# T4 sequence (Q9GZV3 whole entry): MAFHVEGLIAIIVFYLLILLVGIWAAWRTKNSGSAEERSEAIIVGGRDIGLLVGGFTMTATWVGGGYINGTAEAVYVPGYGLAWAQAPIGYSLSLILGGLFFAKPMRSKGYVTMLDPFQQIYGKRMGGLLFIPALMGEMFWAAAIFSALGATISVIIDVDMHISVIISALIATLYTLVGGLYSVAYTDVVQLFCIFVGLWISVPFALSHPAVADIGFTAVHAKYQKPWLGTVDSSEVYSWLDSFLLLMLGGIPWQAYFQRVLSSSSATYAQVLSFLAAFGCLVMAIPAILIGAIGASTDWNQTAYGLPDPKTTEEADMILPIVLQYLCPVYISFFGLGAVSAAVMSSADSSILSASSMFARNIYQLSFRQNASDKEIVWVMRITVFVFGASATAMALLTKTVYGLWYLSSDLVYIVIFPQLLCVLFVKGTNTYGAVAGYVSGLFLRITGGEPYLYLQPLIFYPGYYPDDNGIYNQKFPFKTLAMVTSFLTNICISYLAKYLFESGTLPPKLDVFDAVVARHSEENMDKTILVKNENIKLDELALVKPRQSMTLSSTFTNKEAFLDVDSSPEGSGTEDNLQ
# [27] = target: Melanin-concentrating hormone receptor 1 (Homo sapiens, UniProt Q99705); assay: Late-stage fluorescence-based counterscreen for antagonists of the G-protein coupled receptor 7 (GPR7): cell-based dose response assay to identify antagonists of the melanin-concentrating hormone receptor 1 (MCHR1) Set 6.; assay type: functional
# [28] = target: T5, Neuropeptides B/W receptor type 1 (Homo sapiens, UniProt P48145); assay: GPR7 antagonist potency, late-stage follow-up, cell-based, fluorescence, dose response, set 6 (AID 588583); assay type: functional
# T5 sequence (P48145 whole entry): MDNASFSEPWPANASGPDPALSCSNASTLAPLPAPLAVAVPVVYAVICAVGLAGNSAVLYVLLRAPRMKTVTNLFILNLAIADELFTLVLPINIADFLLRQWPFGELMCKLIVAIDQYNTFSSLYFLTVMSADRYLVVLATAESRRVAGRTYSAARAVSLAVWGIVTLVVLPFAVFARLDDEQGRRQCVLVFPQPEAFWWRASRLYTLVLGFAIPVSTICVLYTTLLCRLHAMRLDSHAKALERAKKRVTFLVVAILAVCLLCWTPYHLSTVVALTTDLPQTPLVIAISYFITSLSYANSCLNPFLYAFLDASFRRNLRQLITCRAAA
# T1 sequence (P31941 whole entry): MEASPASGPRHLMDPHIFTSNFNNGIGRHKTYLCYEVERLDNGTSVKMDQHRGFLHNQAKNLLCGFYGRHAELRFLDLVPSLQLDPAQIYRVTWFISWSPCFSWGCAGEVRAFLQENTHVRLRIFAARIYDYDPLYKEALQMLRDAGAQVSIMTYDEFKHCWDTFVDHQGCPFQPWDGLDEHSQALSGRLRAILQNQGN
# T2 sequence (Q9HC16 whole entry): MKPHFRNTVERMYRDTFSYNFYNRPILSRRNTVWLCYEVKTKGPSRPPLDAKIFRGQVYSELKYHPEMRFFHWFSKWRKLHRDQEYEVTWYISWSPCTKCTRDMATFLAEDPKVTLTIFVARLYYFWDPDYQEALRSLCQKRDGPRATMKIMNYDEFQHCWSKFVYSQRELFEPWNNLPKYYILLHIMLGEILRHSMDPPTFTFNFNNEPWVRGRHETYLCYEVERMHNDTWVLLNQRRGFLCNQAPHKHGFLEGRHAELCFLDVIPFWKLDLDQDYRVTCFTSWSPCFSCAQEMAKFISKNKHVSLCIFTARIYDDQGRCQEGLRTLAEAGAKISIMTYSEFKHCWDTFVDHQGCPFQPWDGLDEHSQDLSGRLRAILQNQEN
# Sequence of Glycogen synthase kinase-3 beta (P49841 whole entry): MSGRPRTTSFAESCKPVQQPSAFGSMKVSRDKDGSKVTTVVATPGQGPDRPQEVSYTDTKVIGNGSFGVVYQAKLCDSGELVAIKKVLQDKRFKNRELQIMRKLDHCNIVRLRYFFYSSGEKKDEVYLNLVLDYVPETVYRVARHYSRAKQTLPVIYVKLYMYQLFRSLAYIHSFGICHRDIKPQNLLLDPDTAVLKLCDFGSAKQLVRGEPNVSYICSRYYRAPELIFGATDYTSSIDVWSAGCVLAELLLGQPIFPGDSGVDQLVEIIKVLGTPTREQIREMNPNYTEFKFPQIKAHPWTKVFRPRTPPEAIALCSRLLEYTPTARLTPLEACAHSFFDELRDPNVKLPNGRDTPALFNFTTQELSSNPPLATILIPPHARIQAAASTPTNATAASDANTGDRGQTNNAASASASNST
# Sequence of Serine/threonine-protein kinase pim-1 (P11309 whole entry): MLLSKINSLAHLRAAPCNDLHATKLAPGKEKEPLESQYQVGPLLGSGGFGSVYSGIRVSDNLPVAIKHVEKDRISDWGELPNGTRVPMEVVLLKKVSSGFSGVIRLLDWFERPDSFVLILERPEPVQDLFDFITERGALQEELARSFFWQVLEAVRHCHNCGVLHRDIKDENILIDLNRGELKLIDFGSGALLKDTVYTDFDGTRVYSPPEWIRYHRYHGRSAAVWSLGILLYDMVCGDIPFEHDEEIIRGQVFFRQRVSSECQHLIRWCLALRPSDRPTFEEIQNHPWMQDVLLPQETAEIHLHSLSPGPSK
# Sequence of Cell division cycle 7-related protein kinase (O00311 whole entry): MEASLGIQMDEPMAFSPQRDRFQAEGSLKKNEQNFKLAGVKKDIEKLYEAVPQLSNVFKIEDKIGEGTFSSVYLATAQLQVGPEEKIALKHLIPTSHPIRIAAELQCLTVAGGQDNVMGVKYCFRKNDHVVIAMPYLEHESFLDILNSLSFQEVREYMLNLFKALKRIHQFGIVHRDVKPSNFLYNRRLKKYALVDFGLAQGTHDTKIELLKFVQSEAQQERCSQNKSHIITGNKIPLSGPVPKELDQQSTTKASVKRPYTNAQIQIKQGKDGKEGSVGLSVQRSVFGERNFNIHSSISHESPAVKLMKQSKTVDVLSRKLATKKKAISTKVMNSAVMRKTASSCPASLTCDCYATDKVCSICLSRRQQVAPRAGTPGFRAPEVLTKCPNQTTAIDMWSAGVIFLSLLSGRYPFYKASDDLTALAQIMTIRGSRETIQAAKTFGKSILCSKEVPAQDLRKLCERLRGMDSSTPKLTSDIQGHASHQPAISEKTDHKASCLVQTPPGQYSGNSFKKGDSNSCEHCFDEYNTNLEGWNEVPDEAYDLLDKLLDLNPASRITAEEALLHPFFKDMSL
# Sequence of Dual specificity protein kinase CLK4 (Q9HAZ1 whole entry): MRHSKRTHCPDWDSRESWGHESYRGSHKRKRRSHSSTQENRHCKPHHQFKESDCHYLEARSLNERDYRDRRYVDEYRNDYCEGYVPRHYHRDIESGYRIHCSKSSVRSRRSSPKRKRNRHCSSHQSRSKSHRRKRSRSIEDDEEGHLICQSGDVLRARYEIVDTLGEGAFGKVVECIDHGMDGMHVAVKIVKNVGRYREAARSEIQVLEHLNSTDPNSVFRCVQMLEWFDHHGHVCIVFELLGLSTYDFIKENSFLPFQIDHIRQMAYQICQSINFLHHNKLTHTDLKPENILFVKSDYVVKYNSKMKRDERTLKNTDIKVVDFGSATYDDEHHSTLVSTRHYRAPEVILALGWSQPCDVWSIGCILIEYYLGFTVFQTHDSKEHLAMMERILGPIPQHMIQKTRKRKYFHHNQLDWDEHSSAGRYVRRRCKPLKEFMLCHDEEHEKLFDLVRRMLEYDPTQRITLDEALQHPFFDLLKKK
# Sequence of Homeodomain-interacting protein kinase 2 (Q9H2X6 whole entry): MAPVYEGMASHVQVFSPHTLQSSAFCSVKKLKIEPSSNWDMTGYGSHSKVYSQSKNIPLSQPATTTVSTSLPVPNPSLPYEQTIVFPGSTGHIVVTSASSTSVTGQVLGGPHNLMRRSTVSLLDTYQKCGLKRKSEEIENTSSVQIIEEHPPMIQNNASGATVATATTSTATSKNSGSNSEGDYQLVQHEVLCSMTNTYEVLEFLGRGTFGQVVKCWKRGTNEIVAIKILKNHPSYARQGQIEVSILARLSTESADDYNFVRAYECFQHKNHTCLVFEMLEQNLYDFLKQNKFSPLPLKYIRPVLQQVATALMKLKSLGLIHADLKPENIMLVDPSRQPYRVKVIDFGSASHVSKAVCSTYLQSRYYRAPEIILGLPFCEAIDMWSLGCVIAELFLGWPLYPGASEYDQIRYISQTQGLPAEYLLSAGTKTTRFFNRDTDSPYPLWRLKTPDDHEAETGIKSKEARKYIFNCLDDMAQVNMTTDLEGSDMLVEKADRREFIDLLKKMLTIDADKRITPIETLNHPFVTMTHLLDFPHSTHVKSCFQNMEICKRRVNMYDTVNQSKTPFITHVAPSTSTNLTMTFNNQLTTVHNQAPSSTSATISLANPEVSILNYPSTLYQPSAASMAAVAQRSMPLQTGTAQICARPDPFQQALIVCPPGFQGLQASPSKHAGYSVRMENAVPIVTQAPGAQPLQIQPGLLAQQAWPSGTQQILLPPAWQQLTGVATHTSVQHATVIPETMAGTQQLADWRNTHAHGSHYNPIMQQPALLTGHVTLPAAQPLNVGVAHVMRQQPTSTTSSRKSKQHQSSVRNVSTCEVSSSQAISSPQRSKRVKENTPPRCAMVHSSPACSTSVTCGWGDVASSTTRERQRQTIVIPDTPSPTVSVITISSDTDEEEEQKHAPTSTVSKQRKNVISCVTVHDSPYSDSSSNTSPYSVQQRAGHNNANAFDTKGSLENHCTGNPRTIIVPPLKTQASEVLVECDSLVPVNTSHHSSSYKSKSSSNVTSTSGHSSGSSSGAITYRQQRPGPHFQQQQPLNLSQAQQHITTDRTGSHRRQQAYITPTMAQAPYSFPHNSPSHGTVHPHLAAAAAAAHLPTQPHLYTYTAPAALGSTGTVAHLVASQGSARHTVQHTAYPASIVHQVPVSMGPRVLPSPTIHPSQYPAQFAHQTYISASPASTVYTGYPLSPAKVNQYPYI
# Sequence of Mitogen-activated protein kinase kinase kinase kinase 4 (O95819 whole entry): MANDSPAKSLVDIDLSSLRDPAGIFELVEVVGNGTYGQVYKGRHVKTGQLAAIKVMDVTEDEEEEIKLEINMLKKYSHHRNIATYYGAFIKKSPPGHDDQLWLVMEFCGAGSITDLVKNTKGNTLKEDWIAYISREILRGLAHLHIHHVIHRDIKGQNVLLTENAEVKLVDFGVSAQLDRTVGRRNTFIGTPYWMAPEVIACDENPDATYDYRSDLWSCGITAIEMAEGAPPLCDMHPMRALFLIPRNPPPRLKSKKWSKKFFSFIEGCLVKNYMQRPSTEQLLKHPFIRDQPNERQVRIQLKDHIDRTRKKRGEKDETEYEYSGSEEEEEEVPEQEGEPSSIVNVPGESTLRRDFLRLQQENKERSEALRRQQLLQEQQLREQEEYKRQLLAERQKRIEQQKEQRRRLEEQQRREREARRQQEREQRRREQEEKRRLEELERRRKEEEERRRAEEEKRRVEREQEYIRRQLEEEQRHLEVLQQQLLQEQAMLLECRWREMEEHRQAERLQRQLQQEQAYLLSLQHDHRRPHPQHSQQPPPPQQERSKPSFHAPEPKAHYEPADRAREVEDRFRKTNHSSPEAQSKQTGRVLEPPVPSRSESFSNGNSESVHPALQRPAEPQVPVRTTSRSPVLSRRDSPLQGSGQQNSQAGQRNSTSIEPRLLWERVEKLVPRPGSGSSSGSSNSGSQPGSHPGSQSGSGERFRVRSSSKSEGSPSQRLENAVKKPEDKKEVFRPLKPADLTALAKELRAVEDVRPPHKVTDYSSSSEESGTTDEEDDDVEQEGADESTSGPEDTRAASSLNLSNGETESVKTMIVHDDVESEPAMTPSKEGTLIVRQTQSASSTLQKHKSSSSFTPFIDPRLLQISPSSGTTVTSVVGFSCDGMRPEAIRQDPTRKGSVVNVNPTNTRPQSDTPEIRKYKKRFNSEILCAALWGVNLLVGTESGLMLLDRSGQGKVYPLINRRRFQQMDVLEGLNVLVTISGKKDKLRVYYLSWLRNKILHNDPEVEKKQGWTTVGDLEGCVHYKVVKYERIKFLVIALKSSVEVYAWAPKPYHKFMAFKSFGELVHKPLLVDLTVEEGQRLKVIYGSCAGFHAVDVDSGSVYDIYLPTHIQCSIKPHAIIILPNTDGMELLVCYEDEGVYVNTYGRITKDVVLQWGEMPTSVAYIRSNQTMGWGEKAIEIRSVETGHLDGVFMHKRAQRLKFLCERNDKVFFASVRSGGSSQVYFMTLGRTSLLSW
# Sequence of Low molecular weight phosphotyrosine protein phosphatase (P24666 whole entry): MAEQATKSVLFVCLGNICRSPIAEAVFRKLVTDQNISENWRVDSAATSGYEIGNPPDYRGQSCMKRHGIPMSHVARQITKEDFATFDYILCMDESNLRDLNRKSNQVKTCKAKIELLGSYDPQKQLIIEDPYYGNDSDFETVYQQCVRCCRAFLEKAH
compound,measurement,setting,value
O=C(NCc1ccc2c(c1)OCO2)c1cc2ncc(Br)cn2n1,IC50,Estrogen receptor beta,0.363 µM (not active)
same,IC50,[1],9.82 µM (active)
same,IC50,[2],56.5 µM (active)
same,IC50,[3],21.1 µM (inactive)
same,IC50,[4],73.1 µM (inactive)
same,IC50,[5],35 µM (inactive)
same,IC50,[6],20.3 µM (inactive)
same,IC50,[7],37.4 µM (inactive)
O=C(/C=C\c1cccs1)N1CCN(Cc2ccc3c(c2)OCO3)CC1,CC50,[8],> 100 µM (active)
same,CC50,[9],> 50 µM (active)
O=C1Nc2ccccc2Nc2cc(-c3ccncc3Cl)ccc21,Ki,[10],> 10 µM (inactive)
same,Ki,[11],0.02 µM (active)
same,Ki,[12],1.26 µM (active)
same,Ki,[13],0.2 µM (active)
same,Ki,[14],1 µM (active)
same,Ki,[15],0.251 µM (active)
same,Ki,[16],0.794 µM (active)
same,Ki,[17],0.0631 µM (active)
same,Ki,[18],0.794 µM (active)
C/N=C1/SC(=Cc2cc(C)n(Cc3ccc(F)cc3F)c2C)C(=O)N1C,EC50,[19],0.287 µM (active)
same,EC50,[20],0.0371 µM (active)
same,EC50,[21],> 25 µM (inactive)
same,EC50,[22],13.1 µM (inactive)
CCOC(=O)c1c[nH]n2c(=O)cc(-c3ccncc3)nc12,Ki,[23],> 7.94 µM (inactive)
same,Ki,[10],3.16 µM (active)
same,Ki,[11],0.00501 µM (active)
same,Ki,[12],0.0501 µM (active)
same,Ki,[14],> 10 µM (inactive)
same,Ki,[15],0.316 µM (active)
same,Ki,[16],> 7.94 µM (inactive)
same,Ki,[17],0.0251 µM (active)
same,Ki,[18],> 10 µM (inactive)
Cc1cc(C)cc(NC(=O)NC2=NN(c3ccccc3)C(=O)C2)c1,Ki,[24],3.98 µM (active)
same,Ki,[25],3.16 µM (active)
O=C1N(Cc2cccc(Cl)c2)C[C@@H]2C[C@@H](c3cccn3-c3ccccn3)N3CCC[C@@]123,EC50,[26],8.22 µM (active)
N#CC(c1c(Cl)cnn(Cc2cccc3ccccc23)c1=O)c1coc2ccccc12 (configuration not stated),IC50,[27],0.294 µM (active)
same,IC50,[28],0.294 µM (active)
